row,melting point,SMILES
1,162 to 163 °C,COC(=O)C1NC(C(=O)OC)C(C(=O)OC)NC1C(=O)OC (stereo unspecified)
2,128 to 132 °C,COc1ccc(OC)c(-c2cccc3c2OC(CN)C3)c1 (stereo unspecified)
3,351 to 354 °C,O=c1nc(-c2ccccc2)c2cc3c(cc2[nH]1)OCO3
4,229 to 231 °C,COc1cc2c(cc1OC)-c1c(C(N)=O)c(-c3cc(C)c(O)c(C)c3)c(C)n1CC2
5,109 to 112 °C,C[C@@H]1N(C(=O)OC(C)(C)C)CC[C@]1(C)O
6,178 to 182 °C,O=C(O)c1cncc(-c2ccc(Cl)c(C(=O)NCC34CC5CC(CC(C5)C3)C4)c2)c1
7,274 to 275 °C,CCC(=O)Nc1nc2c(s1)-c1nc(-c3ccccc3)ncc1CC2
8,> 320 °C,O=C(O)C(=O)Nc1cc(Cl)cc(NC(=O)C(=O)O)n1
9,214 to 215 °C,CN1CCC(Sc2ccc3[nH]c(=O)[nH]c3c2)CC1
10,101 to 102 °C,O=C(c1ccccc1)N1CCn2c(CN3CCOCC3)ccc2C1
11,183 to 185 °C,O=S(=O)(Nc1cnc(-n2ccnc2)nc1NCc1ccc(Br)cc1)c1ccc(Cl)cc1
12,240 to 243 °C,Cc1c(F)c(F)cc2c(=O)c(C(=O)O)cn(C3CC3)c12
13,95 to 104 °C,CN(C)Cc1ccccc1-c1ccc(C(=O)N2Cc3ccc(C(=O)NCc4cccnc4)n3Cc3ccccc32)cc1
14,224 to 226 °C,O=C1NC2(CCCc3sccc32)c2ccccc21 (stereo unspecified)
15,134 °C,CCCN(CCCc1c[nH]c2ccc(F)cc12)C1COc2c(ccc3ncccc23)C1 (stereo unspecified)
16,170 to 172 °C,COc1cc(Nc2nc3cccc(-c4cccc(NC(C)=O)c4)c3o2)cc(OC)c1OC
17,200 to 202 °C,CCn1c(C#N)ccc1-c1ccc2c(c1)C(C)(C)OC(=O)N2
18,132 to 134 °C,COc1ccc(CCC(=O)c2cccc(O)c2)cc1OC
19,210 to 214 °C,COc1cc2ncc(C#N)c(Nc3ccc(F)c(Cl)c3)c2cc1NC(=O)C=CCN(C)CCO
20,> 270 °C,O=C1OCC2=C1C(c1ccccc1Cl)c1c[nH]nc1N2 (stereo unspecified)
21,34 to 36 °C,O=NSC1(C2OCCCO2)CCCCC1
22,197 to 198 °C,O=Cc1cc2cc(O)c(Cl)c(Cl)c2s1
23,185 to 187 °C,CCNC(=O)c1cc(NC(=O)c2ccccc2)ccc1[Si](C)(C)C

row,melting point,SMILES
1,41 to 43 °C,COC1=C(OC)C(=O)OC1=O
2,154 to 156 °C,O=C(c1ccccc1)n1cc(-c2ccccc2)c2ccccc21
3,161 °C,CC1=CC(c2ccccc2Cl)C(C(=O)OC(C)C)=C(N)N1 (stereo unspecified)
4,126 to 128 °C,COc1ccc(/C=C/C(=O)C2C(=O)CC(c3ccc(OC)cc3)C([N+](=O)[O-])C2c2ccc(OC)c(OC)c2)cc1 (stereo unspecified)
5,> 360 °C,CN(C)CCn1c(=O)c2c3oc4ccccc4oc3c3[nH]c4cc(O)ccc4c3c2c1=O
6,> 355 °C,CNC(=O)Nc1snc(S(C)=O)c1C(N)=O (stereo unspecified)
7,160 to 161 °C,COC(=O)C(C)(C)c1ccc(Cl)c([N+](=O)[O-])c1
8,214 to 215 °C,N#CCCNC(=O)c1cccc(-c2cccn3nc(Nc4cccc(C(F)(F)F)c4)nc23)c1
9,219 to 224 °C,O=C(NC12CC3CC(CC1C3)C2)c1ccccc1C(c1ccc(O)cc1)c1ccc(O)cc1
10,219 °C,Cc1nc2c3c(c(C(=O)N(C)C)cc2[nH]1)CC[C@@H](c1ccccc1C)O3
11,65 to 66 °C,CCOC(=O)/C=C(/c1ccc(OC)cc1)c1cc(F)cc(F)c1
12,84 to 86 °C,FC(F)(F)C(c1ccc(Cl)cc1Cl)c1ccc(Cl)cc1Cl
13,81 to 84 °C,O=C(Nc1ccc(N2CCOCC2)c(C(F)(F)F)c1)c1ccc(F)c(OCc2cnc3ccccc3c2)c1
14,124 to 126 °C,CC(C)(C)OC(=O)NCCC(=O)NC(CC(=O)OCc1ccccc1)c1ccccc1 (stereo unspecified)
15,180 to 182 °C,C#Cc1cnc2c(C)cc(OC(SC)C(=O)NC(C)(C#N)CF)cc2c1 (stereo unspecified)
16,159 to 162 °C,O=C(CN1CCN(CC2CCn3c(nc4ccccc43)S2)CC1)N1CCCC1 (stereo unspecified)
17,95 to 96 °C,CN(C)CCOc1ccc(C=NO)cc1
18,111 to 120 °C,COc1ccc(OCc2ccccn2)cc1/C=C/c1cc(/C=C/c2ccc3cc[nH]c3c2)n[nH]1
19,196 to 197 °C,CN(C)c1cccc(CN2C(=O)C3(COc4cc5c(cc43)OCCO5)c3ccccc32)n1 (stereo unspecified)
20,131 to 133 °C,N#CC(C#N)=C1N(CCCN2CCCCC2)CCN1C1CCN(C(=O)C2CC2)CC1
21,117 to 120 °C,CCCCC(=O)C(=Cc1ccc(Cl)cc1)n1cncn1
22,55 to 57 °C,CCCCCCCCCCCCCCCCCCOc1cccc(N(CC(=O)OCc2ccccc2)CC(=O)OCc2ccccc2)c1
23,76 to 77 °C,CC(C)CCC(=O)N1C(=O)O[C@H](c2ccccc2)[C@@H]1C

row,melting point,SMILES
1,110 to 114 °C,COc1cccc(S(=O)c2cccc(N)c2C#N)c1 (stereo unspecified)
2,137 to 138 °C,O=C1C(=Cc2cccs2)CCc2cc(OCCn3ccnc3)ccc21
3,152 to 153 °C,O=c1[nH]c(=O)n(CCCCBr)c2ccccc12
4,65 to 66.5 °C,CCCCc1ccc2c(c1)Cc1ccccc1-2
5,275 to 280 °C,O=c1oc(-c2ccccc2)cc(O)c1Sc1ccccc1Cl
6,284 °C,Nc1ccc(-c2noc(-c3cnn4c(C(F)(F)F)cc(-c5ccc(C(F)(F)F)c(OCC(F)(F)F)c5)nc34)n2)cn1
7,67 to 68 °C,CC(=O)O[C@H]1CS[C@H](COC(=O)c2ccccc2)O1 (relative stereo)
8,121 to 123 °C,Cc1nn(-c2c(Cl)cc(C(F)(F)F)cc2Cl)c(N)c1C#C[Si](C)(C)C
9,182 to 184 °C,NC(=O)C1(O)c2ccccc2S(=O)(=O)N1Cc1ccc(Br)cc1F (stereo unspecified)
10,211 to 213 °C,NC(=O)c1sc2nccc(N3CCCN(c4ccc(OCc5ccccc5)cc4)CC3)c2c1N
11,175 to 176 °C,COc1cc(COc2nn(-c3ccccc3)cc2C(N)=O)ccc1OCc1nc(-c2ccco2)oc1C
12,270 to 271 °C,CC(CN1CCN(CCc2ccc(C(=O)O)cc2)CC1)Oc1ccc(C(=O)O)cc1 (stereo unspecified)
13,194 to 196 °C,Cc1ccc(S(=O)(=O)OCCc2cc3c4ccccc4[nH]c(=O)n3n2)cc1
14,43 to 44 °C,CCCCCCCCCCCCCCCC(=O)OCC(COC(=O)CCCCCCCCCCCCCCC)OC(=O)C1C=CC=CC1(O)C(C)=O (stereo unspecified)
15,84 to 92 °C,O=C1CC(c2ccccc2)c2ccc(Cl)cc21 (stereo unspecified)
16,134 to 135 °C,CCN1CCC(n2nc(-c3c(-c4ccccc4)nn4ccccc34)ccc2=O)CC1
17,140 to 141 °C,CCCC(=O)OCC(=O)C12OCOC1CC1C3CCC4=CC(=O)C=CC4(C)C3C(O)CC12C (stereo unspecified)
18,176 to 180 °C,CCOc1ccc2c(c1)C(c1ccccc1Cl)C(=O)N2 (stereo unspecified)
19,131 to 133 °C,O=C(NCCn1cncn1)c1ccco1
20,99 to 100 °C,Cn1nc(C(F)(F)F)cc1Oc1cc(Cl)c(Cl)cc1[N+](=O)[O-]
21,21 to 24 °C,Cc1ccc(C(C)C)n1N
22,119 to 121 °C,N#Cc1ccc(CC[C@H]2CC[C@H](CO)CC2)cc1
23,153 to 154 °C,COC(=O)c1ccccc1CS(=O)(=O)N=c1nc2nc(OC)cc(OC)n2s1

row,SMILES,melting point
1,Cc1cccc2c(C(=O)O)cn(C)c12,243 °C
2,CC[C@@H]1N(c2ccc(C#N)c(Cl)c2)C(=O)C[C@@]1(O)C1CC1,128 to 132 °C

# From a melting point compilation (Tetko et al.; mined from patent text by program, amines drawn as free bases though some values may be those of a salt)
